Here are results for 16 molecules from patent US20230158025A1 (UNIVERSITY OF UTAH RESEARCH FOUNDATION, priority 2020, published 2023).

One data set concerns the target recombinant human GALK1 (Homo sapiens, UniProt P51570). In words: hGALK1 biochemical activity assay (Kinase-Glo Plus, ATP depletion). How it is done:
In vitro hGALK1 activity assays were performed as previously described. Liu et al., Bioorg. Med. Chem. Lett. 25(3): 721-727 (2015), which is incorporated by reference herein for the specific teachings thereof. The biochemical assay was performed by coupling the activity of recombinant human or mouse GALK1 to the Kinase-Glo Plus luminescent ATP detection kit, using ATP depletion as a measure of GALK1 turnover. Specifically, three μL/well of ATP substrate solution (35 μM ATP) in assay buffer (20 mM HEPES pH 8.0, 5 mM MgCl2, 60 mM NaCl, 1 mM DTT, 0.01% BSA final concentration) was dispensed into 1536-well assay plates (Greiner, white solid-bottom medium-binding plates). Aliquots of compound (23 nL solubilized in DMSO) were transferred to the assay plates using a Kalypsys 1536-well pintool such that 11 concentrations with 1/3 dilutions ranging from 57.4 μM-0.97 nM are tested. One μL/well of GALK-galactose solution (5 nM GALK1, 100 μM galactose) in assay buffer was then added, yielding a final reaction volume of 4 μL/well. Following a 1-hour room temperature incubation, 4 μL of Kinase-Glo Plus detection reagent was added to provide an ATP-dependent luminescent readout (final assay volume: 8 μL/well).
(Kinase-Glo measures the ATP left after a reaction by luminescence.)

Another data set addresses recombinant mouse GALK1 (Mus musculus, UniProt Q9R0N0). As to the kind of experiment: mGALK1 biochemical activity assay (Kinase-Glo Plus, ATP depletion). How it is done:
In vitro hGALK1 activity assays were performed as previously described. Liu et al., Bioorg. […] The biochemical assay was performed by coupling the activity of recombinant human or mouse GALK1 to the Kinase-Glo Plus luminescent ATP detection kit, using ATP depletion as a measure of GALK1 turnover. […] One μL/well of GALK-galactose solution (5 nM GALK1, 100 μM galactose) in assay buffer was then added, yielding a final reaction volume of 4 μL/well. Following a 1-hour room temperature incubation, 4 μL of Kinase-Glo Plus detection reagent was added to provide an ATP-dependent luminescent readout (final assay volume: 8 μL/well).

Data set [1] can be described thus: rat microsomal stability (RLM).
The mark [2] stands for this setting: Tables 2-15, 35 μM ATP, 100 μM galactose, 1 h, bracketed figure after some values (e.g. −1.2) is undefined and not reported, read-out: hGALK IC50.
Setting [3] is: recombinant human GALK1, Kinase-Glo Plus ATP depletion, read-out: hGALK.
Setting [4] is: Tables 2-15, 35 μM ATP, 100 μM galactose, 1 h, bracketed figure after some values is undefined and not reported, read-out: mGALK IC50.
[5] abbreviates: recombinant mouse GALK1, Kinase-Glo Plus ATP depletion, read-out: mGALK.

Where two headings read alike, the source gives them in different places.

Chain of recombinant mouse GALK1 (Q9R0N0 whole entry): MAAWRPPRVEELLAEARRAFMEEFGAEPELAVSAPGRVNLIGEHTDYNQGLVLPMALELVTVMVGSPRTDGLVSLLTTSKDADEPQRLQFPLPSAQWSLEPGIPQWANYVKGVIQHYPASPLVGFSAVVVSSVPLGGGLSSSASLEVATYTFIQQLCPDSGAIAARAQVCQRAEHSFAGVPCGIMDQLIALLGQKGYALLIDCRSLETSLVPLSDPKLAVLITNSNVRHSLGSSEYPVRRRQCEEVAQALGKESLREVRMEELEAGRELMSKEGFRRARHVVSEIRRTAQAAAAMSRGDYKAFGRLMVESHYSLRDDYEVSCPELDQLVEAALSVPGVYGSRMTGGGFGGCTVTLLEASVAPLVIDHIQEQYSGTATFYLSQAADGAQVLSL
Chain of recombinant human GALK1 (P51570 whole entry): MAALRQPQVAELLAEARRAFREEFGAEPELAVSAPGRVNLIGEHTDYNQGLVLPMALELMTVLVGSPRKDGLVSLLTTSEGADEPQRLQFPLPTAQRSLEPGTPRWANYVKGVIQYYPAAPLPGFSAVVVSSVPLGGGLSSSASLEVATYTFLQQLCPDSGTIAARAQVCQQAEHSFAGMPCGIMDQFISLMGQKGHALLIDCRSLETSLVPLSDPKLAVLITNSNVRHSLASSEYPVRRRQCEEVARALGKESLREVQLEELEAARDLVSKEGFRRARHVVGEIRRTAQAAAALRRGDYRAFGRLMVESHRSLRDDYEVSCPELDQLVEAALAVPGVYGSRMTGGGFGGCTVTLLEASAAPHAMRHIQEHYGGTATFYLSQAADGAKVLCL

As to `CC1=C(C(=O)Nc2cc(C(=O)O)ccn2)[C@H](c2ccccc2Cl)N=C(Nc2nc3cccc(N)c3o2)N1` [Compound 24, (R)-2-(2-((7-aminobenzo[d]oxazol-2-yl)amino)-4-(2-chlorophenyl)-6-methyl-1,4-dihydropyrimidine-5-carboxamido)isonicotinic acid], the IC50 was determined as 0.08 µM at recombinant human GALK1 (setting [2]), 0.86 µM on recombinant human GALK1 (setting [3]), 1.72 µM at recombinant mouse GALK1 (setting [4]) and 1.72 µM at recombinant mouse GALK1 (setting [5]).
As to `CC1=C(C(=O)Nc2cc(C(=O)O)ccc2C)C(c2ccccc2Cl)N=C(Nc2nc3ccc(F)cc3o2)N1` (stereo not shown) [Compound 28, 3-(4-(2-chlorophenyl)-2-((6-fluorobenzo[d]oxazol-2-yl)amino)-6-methyl-1,4-dihydropyrimidine-5-carboxamido)-4-methylbenzoic acid], the figures for the IC50 on recombinant human GALK1 (setting [3]) and on recombinant mouse GALK1 (setting [5]) were 3.43 µM and 17.2 µM, respectively.
Turning to `COC(=O)c1ccnc(NC(=O)C2=C(C)NC(Nc3nc4ccc(F)cc4o3)=N[C@H]2c2ccccc2Cl)c1` [Compound 31, (R)-methyl 2-(4-(2-chlorophenyl)-2-((6-fluorobenzo[d]oxazol-2-yl)amino)-6-methyl-1,4-dihydropyrimidine-5-carboxamido)isonicotinate], the figures for the IC50 on recombinant human GALK1 (setting [3]) and at recombinant mouse GALK1 (setting [5]) were 3.06 µM and 4.32 µM, respectively. Moreover, the “Perm. (1 × 10^−6 cm/sec)” value in “PAMPA permeability” is given as <21.9 1 × 10^−6 cm/sec. Further, in data set [1] (microsomal half-life), the “Metab. Stabil. (m)” value turned out to be 30.91 m.
Regarding `COC(=O)c1ccnc(NC(=O)C2=C(C)NC(Nc3nc4ccc(F)cc4o3)=N[C@@H]2c2ccccc2Cl)c1` [Compound 32, (S)-methyl 2-(4-(2-chlorophenyl)-2-((6-fluorobenzo[d]oxazol-2-yl)amino)-6-methyl-1,4-dihydropyrimidine-5-carboxamido)isonicotinate], the results for the IC50 at recombinant human GALK1 (setting [3]) and at recombinant mouse GALK1 (setting [5]) were 12.2 µM and 86.3 µM, respectively. In “PAMPA permeability”, the “Perm. (1 × 10^−6 cm/sec)” value was <7.4 1 × 10^−6 cm/sec. Further, the “Metab. Stabil. (m)” value in data set [1] (microsomal half-life) was 24.28 m.
Consider `CC1=C(C(=O)NCc2cn(C)cn2)C(c2ccccc2Cl)N=C(Nc2nc3ccc(F)cc3o2)N1` (stereo not shown) [Compound 34, 4-(2-chlorophenyl)-2-((6-fluorobenzo[d]oxazol-2-yl)amino)-6-methyl-N-((1-methyl-1H-imidazol-4-yl)methyl)-1,4-dihydropyrimidine-5-carboxamide], for which the values for the IC50 on recombinant human GALK1 (setting [3]) and on recombinant mouse GALK1 (setting [5]) were 8.63 µM and 19.3 µM, respectively.
Consider `CC1=C(C(=O)Nc2ccc(-c3nn[nH]n3)cn2)C(c2ccccc2Cl)N=C(Nc2nc3ccc(F)cc3o2)N1` (stereo not shown) [Compound 35, N-(5-(2H-tetrazol-5-yl)pyridin-2-yl)-4-(2-chlorophenyl)-2-((6-fluorobenzo[d]oxazol-2-yl)amino)-6-methyl-1,4-dihydropyrimidine-5-carboxamide], for which the IC50 is 4.85 µM on recombinant human GALK1 (setting [3]) and 12.2 µM on recombinant mouse GALK1 (setting [5]).
On the same counts, the results for `CC1=C(C(=O)Nc2ccc(C(N)=O)cn2)C(c2ccccc2Cl)N=C(Nc2nc3ccc(F)cc3o2)N1` (stereo not shown) [Compound 36, N-(5-carbamoylpyridin-2-yl)-4-(2-chlorophenyl)-2-((6-fluorobenzo[d]oxazol-2-yl)amino)-6-methyl-1,4-dihydropyrimidine-5-carboxamide] are 2.43 µM and 6.85 µM.
Consider `COc1ccc([C@@H]2N=C(Nc3nc4ccc(F)cc4o3)NC(C)=C2C(=O)Nc2cc(C(=O)O)ccn2)c(Cl)c1` [Compound 53, (R)-2-(4-(2-chloro-4-methoxyphenyl)-2-((6-fluorobenzo[d]oxazol-2-yl)amino)-6-methyl-1,4-dihydropyrimidine-5-carboxamido)isonicotinic acid], for which the IC50 on recombinant human GALK1 (setting [2]) was found to be 0.25 µM; at recombinant human GALK1 (setting [3]), 0.25 µM; on recombinant mouse GALK1 (setting [4]), 1.99 µM; on recombinant mouse GALK1 (setting [5]) it was 1.99 µM.
Turning to `COc1ccc([C@H]2N=C(Nc3nc4ccc(F)cc4o3)NC(C)=C2C(=O)Nc2cc(C(=O)O)ccn2)c(Cl)c1` [Compound 54, (S)-2-(4-(2-chloro-4-methoxyphenyl)-2-((6-fluorobenzo[d]oxazol-2-yl)amino)-6-methyl-1,4-dihydropyrimidine-5-carboxamido)isonicotinic acid], the IC50 on recombinant human GALK1 (setting [2]) came out at 4.84 µM; at recombinant human GALK1 (setting [3]) it was 4.85 µM; at recombinant mouse GALK1 (setting [4]), 19.3 µM; at recombinant mouse GALK1 (setting [5]), 19.3 µM.
For the molecule `CCn1cc(CNC(=O)C2=C(C)NC(Nc3nc4cccc(N)c4o3)=NC2c2ccc(F)cc2Cl)cn1` (stereo not shown) [Compound 118, 2-((7-aminobenzo[d]oxazol-2-yl)amino)-4-(2-chloro-4-fluorophenyl)-N-((1-ethyl-1H-pyrazol-4-yl)methyl)-6-methyl-1,4-dihydropyrimidine-5-carboxamide], the IC50 turned out to be 0.76 µM on recombinant human GALK1 (setting [3]) and 7.69 µM on recombinant mouse GALK1 (setting [5]). Also, the “Perm. (1 × 10^−6 cm/sec)” value in “PAMPA permeability” (PAMPA) is given as 188.9 1 × 10^−6 cm/sec. For the same molecule, the “Metab. Stabil. (m)” value in data set [1] (microsomal stability half-life) came to 18.81 m.
As to `COC(=O)c1ccccc1NC(=O)C1=C(C)NC(Nc2nc3ccccc3o2)=NC1c1ccccc1Cl` (stereo not shown) [Compound 146], the “hGALK IC50” value on recombinant human GALK1 (Tables 2-15, 35 μM ATP, 100 μM galactose, 1 h, bracketed figure after some values (e.g. −1.2) is undefined and not reported) is “inactive”. Also, the “hGALK (μM)” value on recombinant human GALK1 (recombinant human GALK1, Kinase-Glo Plus ATP depletion) is on record as “in- active”. Moreover, on recombinant mouse GALK1 (Tables 2-15, 35 μM ATP, 100 μM galactose, 1 h, bracketed figure after some values is undefined and not reported), the “mGALK IC50” value is “inactive”. For the same molecule, on recombinant mouse GALK1 (recombinant mouse GALK1, Kinase-Glo Plus ATP depletion), the “mGALK (μM)” value was “in- active”.
Regarding `CC1=C(C(=O)Nc2ccccc2C(=O)O)C(c2ccccc2Cl)N=C(Nc2nc3ccccc3o2)N1` (stereo not shown) [Compound 159, 2-(2-(benzo[d]oxazol-2-ylamino)-4-(2-chlorophenyl)-6-methyl-1,4-dihydropyrimidine-5-carboxamido)benzoic acid], the IC50 at recombinant human GALK1 (setting [3]) is 34.4 µM.
Take `CC1=C(C(=O)Nc2ccc(-c3cn[nH]c3)cc2)C(c2ccccc2Cl)N=C(Nc2nc3ccccc3o2)N1` (stereo not shown) [Compound 179, N-(4-(1H-pyrazol-4-yl)phenyl)-2-(benzo[d]oxazol-2-ylamino)-4-(2-chlorophenyl)-6-methyl-1,4-dihydropyrimidine-5-carboxamide]: the IC50 is 6.85 µM on recombinant human GALK1 (setting [2]), 6.85 µM at recombinant human GALK1 (setting [3]), 12.2 µM on recombinant mouse GALK1 (setting [4]) and 12.2 µM at recombinant mouse GALK1 (setting [5]).
Turning to `CC1=C(C(=O)Nc2ccc(-n3cncn3)cc2)C(c2ccccc2Cl)N=C(Nc2nc3ccccc3o2)N1` (stereo not shown) [Compound 191, N-(4-(1H-1,2,4-triazol-1-yl)phenyl)-2-(benzo[d]oxazol-2-ylamino)-4-(2-chlorophenyl)-6-methyl-1,4-dihydropyrimidine-5-carboxamide], the IC50 at recombinant human GALK1 (setting [2]) was found to be 24.3 µM; on recombinant human GALK1 (setting [3]), 24.3 µM; at recombinant mouse GALK1 (setting [4]) it was 34.3 µM; at recombinant mouse GALK1 (setting [5]), 34.3 µM.
As for `CC1=C(C(=O)Nc2nc(C(=O)O)cs2)C(c2ccccc2Cl)N=C(Nc2nc3ccccc3o2)N1` (stereo not shown) [Compound 200, 2-(2-(benzo[d]oxazol-2-ylamino)-4-(2-chlorophenyl)-6-methyl-1,4-dihydropyrimidine-5-carboxamido)thiazole-4-carboxylic acid], the IC50 on recombinant human GALK1 (setting [2]) was found to be 9.68 µM; at recombinant human GALK1 (setting [3]) it was 9.68 µM; on recombinant mouse GALK1 (setting [4]), 19.3 µM; on recombinant mouse GALK1 (setting [5]), 19.3 µM.
With `CC1=C(C(=O)Nc2cccc(CCO)c2)C(c2ccccc2Cl)N=C(Nc2nc3ccccc3o2)N1` (stereo not shown) [Compound 201, 2-(benzo[d]oxazol-2-ylamino)-4-(2-chlorophenyl)-N-(3-(2-hydroxyethyl)phenyl)-6-methyl-1,4-dihydropyrimidine-5-carboxamide], the IC50 on recombinant human GALK1 (setting [2]) and on recombinant human GALK1 (setting [3]) was 17.2 µM throughout. The “Metab. Stabil. (m)” value in data set [1] (microsomal stability half-life) was 26.59 m.
